From article PMC12321279, “Novel 4,5‐Dihydrothiazole‐Phenylpiperazine Derivatives: Synthesis, Docking Studies and Pharmacological Evaluation as Serotonergic Agents” (Chemmedchem, 2025) come the findings set out here.

The subject of this test is mice. The experiment in a line: Novel object recognition (NOR) test. The format is in vivo. Conditions: doses of 30 and 15 mg kg^−1 i.p. 60 min prior to first trial. Here is the method:
The tests were performed on male white mice of the Albino Swiss strain, whose weight was between 24 and 30 g in Experimental Medicine Center, Medical University of Lublin, Poland. The animals were housed (four/five per cage). Before conducting the experimental tests, the animals were subjected to an adaptation that lasted seven days. This consisted of keeping them in a room with relatively constant conditions: a temperature of 22 ± 1 °C, a humidity of 55 ± 5% and lighting that mimicked the natural day and night rhythm (12 h/12 h). Constant access to food and water was provided. Standard feed—LSM Motycz pelleted feed—and tap water were used. Mice were randomly allocated to study groups. Each group was represented by 8–10 animals, depending on the research schedule. […]
The setup for the NOR test consisted of a square, open‐ended Plexiglas box (46 cm long × 35 cm high × 33 cm wide), with a 10‐lux light source suspended 50 cm above it. […] The duration of exploration of each object at T1, T2, and T3 was manually recorded using a stopwatch. The discrimination between F and N during T2 or T3 was assessed by comparing the time spent exploring each of them. Memory performance was assessed using the DI, calculated as (N − F)/ (N + F), representing the difference in exploration time between N and F, normalized by the total exploration time for both objects. […]

Regarding `O=C1C2C3C=CC(C3)C2C(=O)N1OCCCN1CCN(c2ccccc2C2=NCCS2)CC1` (stereo not shown) [FG‐7, 2‐(3‐(4‐(2‐(4,5‐dihydrothiazol‐2‐yl) phenyl) piperazin‐1‐yl) propoxy)‐3a,4,7,7a‐tetrahydro‐1 H‐4,7‐methanoisoindole‐1,3(2 H)‐dione], the “NOR test, memory consolidation expressed by the discrimination index (DI)” value is “showed activity in the novel object recognition (NOR) test”.
